According to publication PMC6050476, “Pre-clinical Pharmacokinetic and Metabolomic Analyses of Isorhapontigenin, a Dietary Resveratrol Derivative” (Frontiers in Pharmacology, 2018):

Legend:
[1] = Stability of isorhapontigenin in rat plasma QC samples under different storage conditions; type: in vitro ADME, Sprague-Dawley rat; conditions: for Freeze thaw stability (% remaining): 3 cycles; for Post preparative stability (% remaining): 4 °C, 6 h; for Long term stability (% remaining): -80 °C, 14 days; for Short term stability (% remaining): on ice, 3 h
Description: Stock solutions of ISO were prepared by dissolution in DMSO and they were stored at room temperature. The stock solutions were further diluted using blank rat plasma to prepare the calibration standards and QC samples. The stock solution of IS was dissolved in acetonitrile to a concentration of 10 μg/mL. 100 μL IS solution was aliquoted into 1.5-mL polypropylene tubes for storage at −80°C. During sample preparation, this solution was further diluted to the working concentration of 10 ng/mL using acetonitrile containing 0.18 μM of disodium EDTA and stored at 4°C.
The calibration range was 1–1000 ng/mL. A simple protein precipitation procedure was used for sample cleanup prior to LC–MS/MS analysis ([Chen et al., 2015], [2016b]). Three volumes of 10 ng/mL IS working solution (^13C isotopically labeled resveratrol in acetonitrile–0.18 μM disodium EDTA) were added to one volume of plasma sample spiked with of L-ascorbic acid at a final concentration of 0.8 mg/mL. After vigorous vortex, centrifugation of samples was performed at 15,000 g for 10 min at 4°C. Subsequently, the clear supernatants were transferred into HPLC vials. During each LC–MS/MS analysis, 1 μL of supernatant was injected into the system.
The dilution integrity was confirmed using a dilution factor of 20. In the presence of L-ascorbic acid (0.8 mg/mL), ISO appeared to stable in plasma; similarly, addition of EDTA in IS acetonitrile solution (0.18 μM) enhanced the post-preparative stability. The details in accuracy, precision, stability, and matrix effect can be found in Supplementary Tables S1–S3.

plasma metabolites = test: Plasma metabolomic profiling after 1-week isorhapontigenin intervention (GC–MS/MS); type: in vivo, Sprague-Dawley rats; conditions: 1-week daily oral ISO 100 μmol/kg vs vehicle, rat plasma
Description: Twenty-two rats were divided into four groups. Group 1 (n = 5) received a single bolus intravenous injection of ISO at the dose of 90 μmol/kg (23.2 mg/kg). Serial blood samples were collected before dosing and at 5, 15, 30, 60, 90, 120, 180, 240, 300, 420, 540, and 720 min after intravenous injection. Group 2 (n = 5) received a single oral administration of ISO at the dose of 200 μmol/kg (51.6 mg/kg). Serial blood samples were collected before dosing and at 15, 30, 45, 60, 90, 120, 180, 240, 300, 420, 540, and 720 min after oral gavage. Group 3 (n = 5) received daily oral pre-treatment of oral dosing vehicle (2 mL/kg) while Group 4 (n = 7) received daily oral pre-treatment of ISO at the dose of 100 μmol/kg (25.8 mg/kg) for 1 week. On day 7, ∼8–10 h after the last pre-treatment dose, surgery was performed on rats in Groups 3 and 4 for jugular vein cannulation, and blood samples were also collected from Groups 3 and 4 for metabolomic study. On day 8, the pharmacokinetic study was carried out on these two groups of animals at the dose of 100 μmol/kg (25.8 mg/kg) using the same blood sampling schedule as Group 2.
The plasma samples collected from rats receiving 1-week daily oral dosing of ISO at 100 μmol/kg (25.8 mg/kg) were subjected to metabolomic study using the rats receiving vehicle as control.
Plasma samples (30 μL aliquots in Eppendorf tubes) were thawed to room temperature (25°C). Myristic-d27 acid (20 μL of 200 μg/mL solution in methanol, IS) and 200 μL of methanol were added to each sample. Samples were vortexed for 5 min at room temperature and centrifuged for 10 min at 15,000 g (4°C). The top 200 μL of each supernatant was transferred to a glass centrifuge tube and dried under nitrogen gas. The dried samples were re-suspended in 100 μL of toluene, vortexed vigorously for 10 s, and dried again under nitrogen. A two-step derivatization method was used for chemical derivatization of the metabolites. Samples were first incubated with 50 μL of 2% methoxy-amine chloride in pyridine for 1.5 h at 60°C. Next, 50 μL of […] was added and the samples were incubated again for 1 h at 60°C. A total of 80 μL of derivatized samples were transferred to glass vials for GC–MS/MS analysis ([Chen et al., 2016a]). Pooled rat plasma from different plasma samples was used as QC and distilled water as blank samples. Two pooled plasma samples were injected before the first study sample and three pooled plasma samples were injected after every six study samples which serve as QC. The blank samples were injected at the beginning, at the middle, and at the end of the sample batch ([Phua et al., 2015]; [Chen et al., 2016a]).
GC–MS/MS analysis was performed using a Shimadzu TQ8040 gas chromatography-triple quadrupole mass spectrometer (Shimadzu Corporation, Japan). The GC injector port was set at 250°C and injection volume was 1 μL with a spilt ratio of 1:10. Chromatographic separation was achieved by a capillary column (BPX-5, 30 m × 0.25 mm × 0.25 μm, SGE Analytical Science, Australia) through constant helium carrier gas flow at 1.14 mL/min. The oven temperature was first held at 60°C for 2 min, followed by increasing temperature ramp of 15°C/min to 330°C, and then held at 330°C for 3 min. The interface and ion source were set at 280 and 200°C, respectively. The mass spectrometer was operated in the MRM mode.
The Shimadzu Smart Metabolites Database (Shimadzu Corporation, Japan) which contains a panel of 475 different endogenous metabolites was applied to identify the metabolites in rat plasma samples in this widely targeted metabolomics analysis. This database contains the retention indices and two MRM transitions of each of the 475 endogenous metabolites which facilitate simple, fast, and reliable metabolite identification and semi-quantification. This strategy has been successfully applied to many studies ([Hashimoto et al., 2017]; [Nishiumi et al., 2017]; [Tomonaga et al., 2018]). […]

Structure (SMILES): COc1cc(/C=C/c2cc(O)cc(O)c2)ccc1O [isorhapontigenin, trans-3,5,4′-trihydroxy-3′-methoxystilbene]
- Freeze thaw stability (% remaining) ([1]; QC 2 ng/ml in rat plasma): 98.4 ± 7.6 % remaining
- Freeze thaw stability (% remaining) ([1]; QC 400 ng/ml in rat plasma): 94.0 ± 2.4 % remaining
- Freeze thaw stability (% remaining) ([1]; QC 800 ng/ml in rat plasma): 92.3 ± 1.2 % remaining
- Post preparative stability (% remaining) ([1]; QC 2 ng/ml): 108.0 ± 6.1 % remaining
- Post preparative stability (% remaining) ([1]; QC 400 ng/ml): 108.0 ± 1.0 % remaining
- Post preparative stability (% remaining) ([1]; QC 800 ng/ml): 108.0 ± 4.1 % remaining
- Long term stability (% remaining) ([1]; QC 2 ng/ml in rat plasma): 87.9 ± 2.5 % remaining
- Long term stability (% remaining) ([1]; QC 400 ng/ml in rat plasma): 101.0 ± 3.0 % remaining
- Long term stability (% remaining) ([1]; QC 800 ng/ml in rat plasma): 97.0 ± 6.5 % remaining
- Short term stability (% remaining) ([1]; QC 2 ng/ml in rat plasma): 104.0 ± 6.0 % remaining
- Short term stability (% remaining) ([1]; QC 400 ng/ml in rat plasma): 102.0 ± 5.4 % remaining
- Short term stability (% remaining) ([1]; QC 800 ng/ml in rat plasma): 98.7 ± 6.4 % remaining
- Fold change of plasma 2-Aminoisobutyric acid (plasma metabolites): 1.351
- Fold change of plasma 4-Hydroxyproline (plasma metabolites): 0.564
- Fold change of plasma Acetylglycine (plasma metabolites): 0.508
- Fold change of plasma Allantoin (plasma metabolites): 0.545
- Fold change of plasma Arachidonic acid (plasma metabolites): 0.789
- Fold change of plasma Aspartic acid (plasma metabolites): 0.475
- Fold change of plasma Cadaverine (plasma metabolites): 0.54
- Fold change of plasma Catechol (plasma metabolites): 1.411
- Fold change of plasma Cholesterol (plasma metabolites): 0.789
- Fold change of plasma Eicosapentaenoic acid (plasma metabolites): 0.762
- Fold change of plasma Fructose (plasma metabolites): 0.608
- Fold change of plasma Glycerol 2-phosphate (plasma metabolites): 0.73
- Fold change of plasma Glycyl-glycine (plasma metabolites): 0.648
- Fold change of plasma Linoleic acid (plasma metabolites): 0.82
- Fold change of plasma N-Acetyl-ornithine (plasma metabolites): 0.474
- Fold change of plasma N-Acetylglutamine (plasma metabolites): 0.804
- Fold change of plasma Psicose (plasma metabolites): 0.709
- Fold change of plasma Sorbose (plasma metabolites): 0.698
- Fold change of plasma Tagatose (plasma metabolites): 0.705
- Fold change of plasma Thymine (plasma metabolites): 1.198
- Fold change of plasma Tryptamine (plasma metabolites): 1.469
- effect on plasma glucose levels (plasma metabolites; no food restriction): did not change glucose levels
